Laboratory results as given in PubChem BioAssay (NCI).
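How tested: cells in 96-well plates exposed to compound for 48 hours at five concentrations. GI50 = concentration required for 50% inhibition of growth. The concentration for full growth arrest is given as TGI.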

Key:
Experiment in all cases: growth of human tumour cells (NCI), 48 h
[1] = tested on: NCI-H522 lung
[2] = tested on: OVCAR-5 ovarian
[3] = tested on: HOP-92 NSCLC
[4] = tested on: NCI/ADR-RES ovarian
[5] = tested on: UO-31 renal
[6] = tested on: OVCAR-8 ovarian
[7] = tested on: OVCAR-3 ovarian
[8] = tested on: NCI-H460 lung
[9] = tested on: BT-549 breast
[10] = tested on: SK-MEL-28 melanoma
[11] = tested on: HOP-62 NSCLC
[12] = tested on: CAKI-1 renal
[13] = tested on: RXF 393 renal
[14] = tested on: DU-145 prostate
[15] = tested on: HS 578T breast
[16] = tested on: MDA-N
[17] = tested on: RPMI-8226 leukemia
[18] = tested on: LOX IMVI melanoma
[19] = tested on: HCT-15 colon
[20] = tested on: UACC-257 melanoma
[21] = tested on: SN12C renal
[22] = tested on: TK-10 renal
[23] = tested on: SR leukemia
[24] = tested on: UACC-62 melanoma
[25] = tested on: MOLT-4 leukemia
[26] = tested on: MALME-3M melanoma
[27] = tested on: EKVX NSCLC
[28] = tested on: ACHN renal
[29] = tested on: MCF7 breast
[30] = tested on: SW-620 colon
[31] = tested on: SK-MEL-5 melanoma
[32] = tested on: HCC-2998 colon
[33] = tested on: OVCAR-4 ovarian
[34] = tested on: SF-295 CNS
[35] = tested on: CCRF-CEM leukemia
[36] = tested on: HCT-116 colon
[37] = tested on: SF-539 CNS
[38] = tested on: SK-MEL-2 melanoma
[39] = tested on: MDA-MB-231 breast
[40] = tested on: NCI-H23 lung
[41] = tested on: A498 renal
[42] = tested on: SF-268 CNS
[43] = tested on: PC-3 prostate
[44] = tested on: MDA-MB-435
[45] = tested on: SNB-75 CNS
[46] = tested on: T-47D breast
[47] = tested on: NCI-H226 lung
[48] = tested on: M14 melanoma
[49] = tested on: A549 NSCLC
[50] = tested on: K-562 leukemia
[51] = tested on: U251 CNS
[52] = tested on: SNB-19 CNS
[53] = tested on: HT29 colon
[54] = tested on: COLO 205 colon
[55] = tested on: IGROV1 ovarian
[56] = tested on: HL-60(TB) leukemia
[57] = tested on: SK-OV-3 ovarian
[58] = tested on: 786-0 renal
[59] = tested on: KM12 colon

CC(C)=CCc1c(O)cc(/C=C/c2cc(O)c3c(c2)C[C@@H]2C(C)(C)[C@H](O)[C@H](O)C[C@@]2(C)O3)cc1O
GI50 [1]: 363 nM | TGI [1]: 2860 nM | GI50 [2]: 1360 nM | TGI [2]: > 7960 nM | GI50 [3]: 10.4 nM | TGI [3]: 2600 nM | GI50 [4]: 1380 nM | TGI [4]: 7430 nM | GI50 [5]: < 1 nM | TGI [5]: 4920 nM | GI50 [6]: 1920 nM | TGI [6]: > 10000 nM | GI50 [7]: 1500 nM | TGI [7]: 5110 nM | GI50 [8]: 1.46 nM | TGI [8]: > 4360 nM | GI50 [9]: 55.3 nM | TGI [9]: > 7230 nM | GI50 [10]: 1580 nM | TGI [10]: > 5260 nM | GI50 [11]: 1380 nM | TGI [11]: > 7950 nM | GI50 [12]: 2.67 nM | TGI [12]: > 5600 nM | GI50 [13]: < 1 nM | GI50 [14]: 1960 nM | TGI [14]: > 10000 nM | GI50 [15]: < 1 nM | TGI [15]: > 2210 nM | GI50 [16]: 1270 nM | TGI [16]: > 10000 nM | GI50 [17]: < 1 nM | GI50 [18]: 2.1 nM | TGI [18]: 3020 nM | GI50 [19]: 1280 nM | TGI [19]: > 10000 nM | GI50 [20]: 2620 nM | TGI [20]: > 10000 nM | GI50 [21]: 2810 nM | TGI [21]: > 10000 nM | GI50 [22]: 479 nM | TGI [22]: > 3100 nM | GI50 [23]: < 1 nM | TGI [23]: > 10000 nM | GI50 [24]: 46.2 nM | TGI [24]: 325 nM | GI50 [25]: < 1 nM | TGI [25]: 14.8 nM | GI50 [26]: 1210 nM | TGI [26]: 6510 nM | GI50 [27]: 789 nM | TGI [27]: 4490 nM | GI50 [28]: 526 nM | TGI [28]: > 8740 nM | GI50 [29]: 7.18 nM | TGI [29]: 831 nM | GI50 [30]: 110 nM | TGI [30]: 1880 nM | GI50 [31]: 1030 nM | TGI [31]: 2320 nM | GI50 [32]: 1290 nM | TGI [32]: 4170 nM | GI50 [33]: 831 nM | TGI [33]: 4080 nM | GI50 [34]: < 1 nM | TGI [34]: 1.18 nM | GI50 [35]: < 1 nM | TGI [35]: 2000 nM | GI50 [36]: 5.19 nM | TGI [36]: > 10000 nM | GI50 [37]: 5.32 nM | TGI [37]: 2200 nM | GI50 [38]: 44.4 nM | GI50 [39]: 1660 nM | TGI [39]: > 10000 nM | GI50 [40]: 1510 nM | TGI [40]: 7680 nM | GI50 [41]: 1220 nM | TGI [41]: 9570 nM | GI50 [42]: 1110 nM | TGI [42]: > 7760 nM | GI50 [43]: 345 nM | TGI [43]: > 10000 nM | GI50 [44]: 662 nM | TGI [44]: 4220 nM | GI50 [45]: < 1 nM | TGI [45]: 958 nM | GI50 [46]: 1850 nM | TGI [46]: > 9390 nM | GI50 [47]: 1990 nM | TGI [47]: > 10000 nM | GI50 [48]: 548 nM | TGI [48]: 4020 nM | GI50 [49]: 249 nM | TGI [49]: > 10000 nM | GI50 [50]: 15.4 nM | TGI [50]: > 9250 nM | GI50 [51]: 53.3 nM | TGI [51]: > 5280 nM | GI50 [52]: 1460 nM | TGI [52]: > 10000 nM | GI50 [53]: 373 nM | TGI [53]: 3540 nM | GI50 [54]: 1370 nM | TGI [54]: 3820 nM | GI50 [55]: 1250 nM | TGI [55]: > 10000 nM | GI50 [56]: < 1 nM | TGI [56]: 3050 nM | GI50 [57]: 264 nM | TGI [57]: 3730 nM | GI50 [58]: < 1 nM | TGI [58]: > 6260 nM | GI50 [59]: 590 nM | TGI [59]: 4110 nM
